Results reported in patent US8513422B2, “Piperidine derivative” (Astellas Pharma Inc., priority 2007, dated 2013).

How the values were obtained:
[1] = target: T1, LNCaP cells expressing human 17βHSD type 5 (Homo sapiens, UniProt P42330); assay: Cell growth capability using LNCaP cells expressing human 17βHSD type 5 (CellTiter-Glo); type: cell-based; details: androstenedione 10 nM, culturing for 7 days; read-out: LNCaP-17β5 IC50 (cell growth inhibitory activity)
T1 sequence (P42330 1-323): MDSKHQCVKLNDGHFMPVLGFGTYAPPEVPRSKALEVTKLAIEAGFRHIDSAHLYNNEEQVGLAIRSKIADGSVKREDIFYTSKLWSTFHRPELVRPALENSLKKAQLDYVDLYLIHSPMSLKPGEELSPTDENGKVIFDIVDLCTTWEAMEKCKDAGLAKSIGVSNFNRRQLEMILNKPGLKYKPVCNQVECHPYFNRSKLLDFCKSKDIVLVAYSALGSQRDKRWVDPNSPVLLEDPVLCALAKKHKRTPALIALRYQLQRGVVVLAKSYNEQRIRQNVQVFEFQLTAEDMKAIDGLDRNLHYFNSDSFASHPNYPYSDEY
Description: LNCaP cells of the human prostate cancer-derived cell line were transformed with a plasmid containing the clone selected in section 1 above and then a cell line showing stable expression was obtained.
9000 cells/well of the transformed cells obtained in section 4 above were seeded in a 96-well plate and cultured overnight. Then, androstenedione, in conjunction with a test compound, was added thereto at a final concentration of 10 nM, followed by culturing for 7 days. After the culturing, number of the cells was counted using a CellTiter-Glo (registered trademark) Luminescent Cell Viability Assay (Promega). The CellTiter-Glo (registered trademark) Luminescent Cell Viability Assay is a reagent that measures the number of the cells by monitoring an intracellular ATP level from the luminescence intensity by luciferase. The experimental manipulation was carried out in accordance with the attached instructions. The cell growth inhibitory activity in the presence of a test compound was calculated as a relative value with respect to the number of the cells in the absence of androstenedione set at proliferation of 0%, and the number of the cells in the presence of androstenedione and in the absence of the test compound set at proliferation of 100%. Then, IC50 values were calculated by the Logistic regression method.

human 17βHSD type 5 = target: T2, human 17βHSD type 5 (Homo sapiens, UniProt P42330); assay: Measurement of enzyme activity of human 17βHSD type 5 (testosterone production from androstenedione, DELFIA); type: biochemical; details: purified enzyme 10 μg/mL, androstenedione 300 nM, NADPH 200 μM, pH 6.0, room temperature, 2 hours
T2 construct: A full-length cDNA encoding human 17βHSD type 5 used in the pharmacological test of the present invention; made in house; host or cells: Escherichia coli BL21
T2 sequence (P42330 1-323): T1 sequence (P42330 1-323)
Source text: A full-length cDNA encoding human 17βHSD type 5 used in the pharmacological test of the present invention was obtained by the PCR method using a cDNA derived from a human lung cancer-derived cell line, A549 cells as a template. […] Escherichia coli BL21 was transformed with a plasmid containing the cDNA and cultured on a large scale. The proteins were purified by using GSTrapFF column (manufactured by Amersham) and PreScissionProtease (manufactured by Amersham). The purification method was carried out in accordance with the instructions attached to the GSTrapFF column.
The measurement was performed in accordance with the attached instructions. The amount of reduction of testosterone production in the presence of the compound was obtained as a relative value with respect to the amount of testosterone in the absence of the enzyme set at 0% and the amount of testosterone produced in the absence of the compound set at 100%. Then, IC50 values were calculated by the Logistic regression method.

human 17βHSD type 3 = target: T3, human 17βHSD type 3 (Homo sapiens, UniProt P37058); assay: Measurement of enzyme activity of human 17βHSD type 3; type: biochemical; details: supernatant of transformed 293 cells as enzyme source
T3 construct: A full-length cDNA encoding human 17βHSD type 3 used in the pharmacological test of the present invention; expressed in transfected cells; host or cells: 293 cells (human fetus kidney-derived); supernatant of disrupted cells
T3 sequence (P37058 1-310): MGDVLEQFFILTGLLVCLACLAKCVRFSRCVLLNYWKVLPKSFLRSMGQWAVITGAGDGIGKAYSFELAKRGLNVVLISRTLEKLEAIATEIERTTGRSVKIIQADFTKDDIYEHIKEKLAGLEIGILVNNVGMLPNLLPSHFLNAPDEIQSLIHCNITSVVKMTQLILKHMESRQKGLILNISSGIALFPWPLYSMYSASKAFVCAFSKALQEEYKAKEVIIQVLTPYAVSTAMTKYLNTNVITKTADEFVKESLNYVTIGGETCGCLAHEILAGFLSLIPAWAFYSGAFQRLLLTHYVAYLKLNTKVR
Description: A full-length cDNA encoding human 17βHSD type 3 used in the pharmacological test of the present invention was obtained by the PCR method using a cDNA derived from human testis as a template. The nucleotide sequence of the obtained cDNA was analyzed by the dideoxyterminator method, and the clone matched with the known human 17βHSD type 3 sequence (GenBank accession No. BC034281) was selected. Subsequently, human fetus kidney-derived cell line, 293 cells, were transformed with a plasmid containing the cDNA, and the cells were collected 24 hours later. The collected cells were then disrupted in a phosphate buffer solution containing 5% glycerol (500 μL per 100 mm-dish of a phosphate buffer solution (pH 7.4, 200 mM) containing 5% glycerol) and centrifuged (16000 rpm, 5 min, 4° C.), and the supernatant was used as an enzyme source.
Enzyme activity was measured referring to Trevor M. Penning, et al., Biochem. J., 351, 67-77, (2000). Specifically, using a 100 mM potassium phosphate buffer (pH 6.0), (1) the enzyme purified in section 1 above at a final concentration of 10 μg/mL, (2) androstenedione at a final concentration of 300 nM, (3) NADPH at a final concentration of 200 μM, and (4) a test substance, were mixed to react at room temperature for 2 hours, and then the amount of testosterone produced was measured using DELFIA (registered trademark) Testosterone Reagents R050-201 (manufactured by PerkinElmer). The measurement was performed in accordance with the attached instructions. The amount of reduction of testosterone production in the presence of the compound was obtained as a relative value with respect to the amount of testosterone in the absence of the enzyme set at 0% and the amount of testosterone produced in the absence of the compound set at 100%. Then, IC50 values were calculated by the Logistic regression method.

5α-reductase = details: patients with BPH, after administration; cited from earlier work

## Cc1ccc2[nH]c(C(=O)N3CCC(CC(C)(C)O)CC3)c(C)c2c1 [Example 17, 1-{1-[(3,5-dimethyl-1H-indol-2-yl)carbonyl]piperidin-4-yl}-2-methylpropan-2-ol]
[1]
  GI50: 20 nM
other
  melting point: 166 to 168 °C
Human 17βHSD type 5
  IC50: 390 nM
Human 17βHSD type 3
  IC50: > 10000 nM

## CC(C)(O)CC1CCN(C(=O)c2cc3cc(O)ccc3[nH]2)CC1 [Example 15, 2-{[4-(2-hydroxy-2-methylpropyl)piperidin-1-yl]carbonyl}-1H-indol-5-ol]
[1]
  GI50: 18 nM
other
  melting point: 212 to 219 °C
Human 17βHSD type 5
  IC50: 15 nM
Human 17βHSD type 3
  IC50: > 10000 nM

## CC(O)CC1CCN(C(=O)c2cc3ccccc3[nH]2)CC1 (stereo not drawn) [Example 30, 1-[1-(1H-indol-2-ylcarbonyl)piperidin-4-yl]propan-2-ol]
[1]
  GI50: 31 nM
other
  melting point: 163 to 167 °C
Human 17βHSD type 5
  IC50: 26 nM
Human 17βHSD type 3
  IC50: > 10000 nM

## CC(C)(C)NC(=O)[C@H]1CC[C@H]2[C@@H]3CC[C@H]4NC(=O)C=C[C@]4(C)[C@H]3CC[C@]12C [finasteride]
5α-reductase
  concentration of DHT in the prostate relative to the concentration before the administration: about 20%
  increase of concentration of testosterone in the prostate: 4 fold

## Cc1ccc2[nH]c(C(=O)N3CCC(CC(C)(C)O)CC3)cc2c1 [Example 24, 2-methyl-1-{1-[(5-methyl-1H-indol-2-yl)carbonyl]piperidin-4-yl}propan-2-ol]
[1]
  GI50: 24 nM
other
  melting point: 149 to 150 °C
Human 17βHSD type 5
  IC50: 150 nM
Human 17βHSD type 3
  IC50: > 10000 nM

## CC(C)(O)CC1CCN(C(=O)c2cc3cc([N+](=O)[O-])ccc3[nH]2)CC1 [Example 20, 2-methyl-1-{1-[(5-nitro-1H-indol-2-yl)carbonyl]piperidin-4-yl}propan-2-ol]
[1]
  GI50: 29 nM
other
  melting point: 223 to 225 °C
Human 17βHSD type 5
  IC50: 15 nM
Human 17βHSD type 3
  IC50: > 10000 nM

## COc1ccc2[nH]c(C(=O)N3CCC(CC(C)(C)O)CC3)cc2c1 [Example 25, 1-{1-[(5-methoxy-1H-indol-2-yl)carbonyl]piperidin-4-yl}-2-methylpropan-2-ol]
[1]
  GI50: 12 nM
Human 17βHSD type 3
  IC50: > 10000 nM

## CC(C)(O)CC1CCN(C(=O)c2cc3ccccc3[nH]2)CC1 [Example 9, 1-[1-(1H-indol-2-ylcarbonyl)piperidin-4-yl]-2-methylpropan-2-ol]
[1]
  GI50: 10 nM
other
  melting point: 153 to 163 °C
Human 17βHSD type 5
  IC50: 130 nM
Human 17βHSD type 3
  IC50: > 10000 nM

## CC(C)(O)CC1CCN(C(=O)c2cc3cc(Cl)ccc3[nH]2)CC1 [Example 1, 1-{1-[(5-chloro-1H-indol-2-yl)carbonyl]piperidin-4-yl}-2-methylpropan-2-ol]
[1]
  GI50: 8.9 nM
other
  melting point: 178 to 180 °C
Human 17βHSD type 5
  IC50: 4.5 nM
Human 17βHSD type 3
  IC50: > 10000 nM

## Cc1ccc2[nH]c(C(=O)N3CCC(CCO)CC3)cc2c1 [Example 22, 2-{1-[(5-methyl-1H-indol-2-yl)carbonyl]piperidin-4-yl}ethanol]
[1]
  GI50: 60 nM
other
  melting point: 163 to 165 °C
Human 17βHSD type 5
  IC50: 21 nM
Human 17βHSD type 3
  IC50: > 10000 nM
